Columns and labels:
Format in all cases: cell-based, human
HEK293 cells = test: MTT cell viability assay, HEK293; details: Homo sapiens, HEK293, IC50 ± SD
HCT-116 cells [1] = test: Cell cycle distribution analysis by flow cytometry (PI staining); details: HCT-116, 24 to 72 h, vs vehicle
Protocol: Based on their antiproliferative activity, 20d and 19b were evaluated for their effect on cell cycle phase distribution and DNA content by flow cytometry.
HCT-116 and A-549 cells were seeded into culture plates and allowed to attach overnight. Then, cells were incubated with the investigated compounds for the indicated time points. After incubation, the harvested cells were fixed with ice-cold 75% ethanol and stored overnight at − 20 °C. Next, cells were rehydrated with PBS in ice for 15 min and washed twice in PBS. Finally, cells were stained with […] propidium iodide (PI) and […] RNase A in PBS for 30 min at room temperature. Cell cycle distribution was determined using a Guava easyCyte 8 flow cytometer (Merck Millipore) and FlowJo v10 software.

[2] = system: hMLH1-proficient RKO cells; test: ROS level, H2DCFDA probe, MMR-proficient RKO; details: 1 h of exposure, vs control
Protocol: Then, we confirmed whether the induction of cellular stress by 20d is related to MMR deficiency by exposing MMR-deficient and MMR-proficient cells to the compound for different times and measuring the ROS levels. Our results indicated a greater increase in the level of ROS after 1 h of exposure in 20d-treated MMR-deficient cells than in MMR-proficient cells (54.71 ± 2.70% and 22.27 ± 1.7%, respectively), in comparison to control (Fig. 7).
The […] ROS levels were determined using an H2DCFDA (2′,7′-dichlorodihydrofluorescein diacetate) probe (Thermo Fisher) following the manufacturer’s protocol. […] DMSO (1%, Merck) and 250 μM H2O2 were used as a negative and positive control, respectively. NAC (500 μM, Sigma-Aldrich) was used as an ROS scavenger to confirm the ROS activity. After treatment with 20d and 19b, cells were incubated with H2DCFDA at 37 °C for 30 min. Subsequently, cells were harvested by trypsinization, rinsed with PBS, and stained with 7-AAD (Thermo Fisher). Finally, the stained cells were analyzed by flow cytometry using a Guava easyCyte 8 cell sorter (Merck Millipore) and FlowJo v10 software.

HCT-116 cells [3] = test: Western blot protein expression in HCT-116 cells
Protocol: HCT-116 cells were seeded into 60-mm Petri dishes at a density of 1.5 × 10^6 cells per dish and incubated overnight. […] After treatment, cells were lysed in Laemmli buffer with a protease and phosphatase inhibitors cocktail (Roche), followed by sonification The lysate was cleared by centrifuging at 16,000×g for 15 min at 12 °C. The supernatant was collected, and the extract was quantified for protein using the DC Protein Assay (Bio-Rad). Proteins were resolved by 10% or 12% sodium dodecyl sulfate–polyacrylamide gel electrophoresis and transferred to polyvinylidene difluoride membranes (Bio-Rad). Membranes were blocked using 5% (w/v) bovine serum albumin (Sigma-Aldrich) in 1× TBST (pH 7.4 and 0.1% Tween-20) for 1 h at room temperature and subsequently incubated overnight with primary antibodies at 4 °C. The blots were washed thrice with TBST and then incubated with horseradish peroxidase-conjugated antibodies for 1 h at room temperature. After washing, the membranes were evaluated for detecting the protein bands using enhanced chemiluminescence detection reagent kit (Thermo Fisher) and ChemiDoc XRS + Imaging System (Bio-Rad). The band intensity was measured using ImageLab 5.2 software (Bio-Rad).

O=C(Nc1cccc(F)c1)OC1CCCc2c(-c3ccccc3)cc(=O)[nH]c21 (stereo not shown) [Compound 20d, (2-oxo-4-phenyl-5,6,7,8-tetrahydroquinolin-8-yl) N-(3-fluorophenyl)carbamate] was tested, and the IC50 (HEK293 cells) was greater than 50 µM, the “increase in the number of cells in the G0/G1 phase” value (HCT-116 cells [1]) was less than 14% and the “number of cells in the S-phase” value (HCT-116 cells [1]) was “substantial decrease”. For the same molecule, the “increase in the level of ROS” value [2] was 22.27 ± 1.7%, the “expression of LAMP-1 protein” value (HCT-116 cells [3]; HCT-116) was “time-dependent increase” and the expression of vimentin (HCT-116 cells [3]; HCT-116) was “significantly altered”. For the same molecule, the “level of phospho-AKT (Ser473)” value (HCT-116 cells [3]; HCT-116) was “significantly reduced”, the “level of phospho-mTOR (Ser2448)” value (HCT-116 cells [3]; HCT-116) was “significantly reduced” and the “expression of p-γ-H2AX” value (HCT-116 cells [3]; HCT-116, 24–72 h, immunoblot and immunofluorescence) was “significantly increased”. The “cyclin D1 expression” value (HCT-116 cells [3]; HCT-116, 72 h, vs DMSO) was “slight inhibition”, the β-catenin (HCT-116 cells [3]; HCT-116, even after 24 h) was “caused the cleavage of β-catenin” and the “levels of LC3-II” value (HCT-116 cells [3]; HCT-116, vs control) was “higher”. The “expression of p21” value (HCT-116 cells [3]; HCT-116, vs control, p < 0.001) was “markedly higher”, the “expression of p27” value (HCT-116 cells [3]; HCT-116, vs control, p < 0.001) was “markedly higher” and the “expression of p53” value (HCT-116 cells [3]; HCT-116, vs control, p < 0.001) was “markedly higher”. The expression of c-myc (HCT-116 cells [3]; HCT-116, vs vehicle) was “downregulated”.
